Measurements as given in patent US8389526B2, “3-heteroarylmethyl-imidazo[1,2-b]pyridazin-6-yl derivatives” (Novartis AG, priority 2009, dated 2013).

Experiments:
[1] = target: T1, c-Met receptor tyrosine kinase, GST-c-Met(969-1390) (Homo sapiens, UniProt P08581); experiment: EPK c-Met profiling assay (LanthaScreen TR-FRET kinase assay); type: biochemical; details: 2 μM ATP, 0.3 nM enzyme, 60 minutes at room temperature
T1 construct: made in house
Outline: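 Recombinant GST-c-Met(969-1390) cytoplasmic domain, 0.3 nM, phosphorylating 50 nM Fluorescein-PolyEAY with 2 μM ATP, 10 mM MgCl2, 3 mM MnCl2, 60 min at room temperature. EDTA-stopped; phosphoproduct detected by TR-FRET with Tb-PY20 antibody, end-point read. Final compound 0.003-10 μM over 8 concentrations.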

[2] = tested on: MET-amplified gastric cancer cell line GTL-16; experiment: GTL-16 proliferation assay (MTS); type: cell-based; details: Homo sapiens, GTL-16 cells, 72 h incubation
Outline: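 GTL-16 cells were seeded at 3000/well in DMEM with 10% FCS. After 24 h they were treated in triplicate with a 10-point, 3-fold dilution series ([…]; DMSO-only control) for 72 h. Viable cells were measured by MTS, with OD 490 nm read after 30 min.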

c-Met = target: T2, c-Met (Homo sapiens, UniProt P08581); experiment: GTL-16 c-Met autophosphorylation measured by AlphaScreen detection; type: cell-based; details: GTL-16 cells, 1 h incubation, AlphaScreen p-c-Met; read-out: GTL-16 IC50 c-Met phosphorylation
T2 construct: adapted to measure the phosphorylation of endogenous cellular proteins in cell lysates; endogenous in cells; host or cells: GTL-16
T2 sequence (P08581 25-1390): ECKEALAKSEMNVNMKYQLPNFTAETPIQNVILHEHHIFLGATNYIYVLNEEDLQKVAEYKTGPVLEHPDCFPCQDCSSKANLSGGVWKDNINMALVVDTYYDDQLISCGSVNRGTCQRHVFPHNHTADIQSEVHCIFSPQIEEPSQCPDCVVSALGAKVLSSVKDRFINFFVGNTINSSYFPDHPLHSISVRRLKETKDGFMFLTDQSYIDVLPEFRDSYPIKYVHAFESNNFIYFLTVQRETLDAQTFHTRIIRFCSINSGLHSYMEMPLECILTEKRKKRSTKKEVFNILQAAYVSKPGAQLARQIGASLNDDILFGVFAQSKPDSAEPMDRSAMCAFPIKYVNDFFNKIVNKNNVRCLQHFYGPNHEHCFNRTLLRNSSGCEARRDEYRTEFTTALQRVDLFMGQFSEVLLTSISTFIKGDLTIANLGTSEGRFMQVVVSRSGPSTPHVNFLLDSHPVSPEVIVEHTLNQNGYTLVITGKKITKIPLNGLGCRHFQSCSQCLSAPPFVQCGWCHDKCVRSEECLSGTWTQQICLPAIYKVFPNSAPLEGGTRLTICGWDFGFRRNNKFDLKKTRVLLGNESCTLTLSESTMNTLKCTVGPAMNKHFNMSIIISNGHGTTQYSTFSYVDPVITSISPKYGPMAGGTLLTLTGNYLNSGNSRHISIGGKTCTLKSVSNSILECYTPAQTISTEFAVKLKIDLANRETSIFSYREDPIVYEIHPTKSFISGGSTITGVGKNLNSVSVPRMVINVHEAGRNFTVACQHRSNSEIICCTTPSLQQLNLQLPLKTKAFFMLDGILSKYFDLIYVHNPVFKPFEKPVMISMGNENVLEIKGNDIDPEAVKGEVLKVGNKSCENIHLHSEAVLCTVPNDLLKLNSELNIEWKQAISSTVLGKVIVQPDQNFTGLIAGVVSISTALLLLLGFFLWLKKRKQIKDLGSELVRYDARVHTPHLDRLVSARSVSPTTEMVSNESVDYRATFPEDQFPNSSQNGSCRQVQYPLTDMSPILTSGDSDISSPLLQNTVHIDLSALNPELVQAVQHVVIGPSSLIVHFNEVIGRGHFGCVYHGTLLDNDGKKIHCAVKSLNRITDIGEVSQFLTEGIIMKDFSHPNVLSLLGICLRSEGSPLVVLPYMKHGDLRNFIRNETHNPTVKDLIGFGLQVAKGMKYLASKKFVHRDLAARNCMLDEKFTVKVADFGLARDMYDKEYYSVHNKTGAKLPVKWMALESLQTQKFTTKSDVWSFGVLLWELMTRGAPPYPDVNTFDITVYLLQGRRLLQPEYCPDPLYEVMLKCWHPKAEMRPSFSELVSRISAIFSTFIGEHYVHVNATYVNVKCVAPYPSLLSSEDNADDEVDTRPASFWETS
Outline: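 GTL-16 MET-amplified gastric cancer cells, serum-free DMEM with 0.1% BSA, exposed to 8-point compound dilutions for 1 h at 37° C (0.11% DMSO final). Lysates probed for phospho-c-Met by AlphaScreen using anti-c-Met antibody, biotinylated PY20 phosphotyrosine antibody, Protein A acceptor and streptavidin donor beads.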

T1 sequence (P08581 969-1390): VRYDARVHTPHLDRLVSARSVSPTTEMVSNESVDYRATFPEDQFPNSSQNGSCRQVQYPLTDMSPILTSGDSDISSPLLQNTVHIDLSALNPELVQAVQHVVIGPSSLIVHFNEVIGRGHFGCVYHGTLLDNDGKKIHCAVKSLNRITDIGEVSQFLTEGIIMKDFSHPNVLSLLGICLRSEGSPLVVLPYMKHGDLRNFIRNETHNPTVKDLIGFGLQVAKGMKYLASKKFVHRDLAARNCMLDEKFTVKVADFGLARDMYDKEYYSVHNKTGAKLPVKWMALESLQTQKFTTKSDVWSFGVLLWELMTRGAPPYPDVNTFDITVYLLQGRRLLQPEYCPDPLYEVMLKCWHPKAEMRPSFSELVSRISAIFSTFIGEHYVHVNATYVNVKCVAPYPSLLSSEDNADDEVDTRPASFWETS

Row | Compound | IC50 [1] | IC50 [2] | IC50 (c-Met)
1 | O=CN1CCN(c2ccc3ncc(Cc4c(F)cc5ncccc5c4F)n3n2)CC1 [Example 35, 4-[3-(5,7-Difluoro-quinolin-6-ylmethyl)-imidazo[1,2-b]pyridazin-6-yl]-piperazine-1-carbaldehyde] | 9.9 nM | 45 nM | 8 nM
2 | COC(=O)N1CCN(c2ccc3ncc(Cc4c(F)cc5ncccc5c4F)n3n2)CC1 [Example 36, 4-[3-(5,7-Difluoro-quinolin-6-ylmethyl)-imidazo[1,2-b]pyridazin-6-yl]-piperazine-1-carboxylic acid methyl ester] | 11 nM | 25 nM | < 3 nM
3 | O=C1CN(c2ccc3ncc(Cc4ccc5ncccc5c4F)n3n2)CCN1 [Example 44, 4-[3-(5-Fluoro-quinolin-6-ylmethyl)-imidazo[1,2-b]pyridazin-6-yl]-piperazin-2-one] | 14 nM | 133 nM | 31 nM
4 | C[C@@H](c1c(F)cc2c(cnn2C)c1F)c1cnc2ccc(N3CCN(C)C(=O)C3)nn12 [Example 50, 4-{3-[(S)-1-(4,6-Difluoro-1-methyl-1H-indazol-5-yl)-ethyl]-imidazo[1,2-b]pyridazin-6-yl}-1-methyl-piperazin-2-one] | 8.3 nM | 11 nM | 2.7 nM
5 | C[C@@H](c1c(F)cc2c(cnn2C)c1F)c1cnc2ccc(N3CCNC(=O)C3)nn12 [Example 52, 4-{3-[(S)-1-(4,6-Difluoro-1-methyl-1H-indazol-5-yl)-ethyl]-imidazo[1,2-b]pyridazin-6-yl}-piperazin-2-one] | < 3 nM | 11 nM | 2.2 nM
6 | CC(=O)N1CCN(c2ccc3ncc([C@@H](C)c4c(F)cc5c(cnn5C)c4F)n3n2)CC1 [Example 53, 1-(4-{3-[(S)-1-(4,6-Difluoro-1-methyl-1H-indazol-5-yl)-ethyl]-imidazo[1,2-b]pyridazin-6-yl}-piperazin-1-yl)-ethanone] | 5.2 nM | 22 nM | 4.4 nM
7 | Cn1ncc2c(F)c(Cc3cnc4ccc(N5CCNC(=O)C5)nn34)c(F)cc21 [Example 54, 4-[3-(4,6-Difluoro-1-methyl-1H-indazol-5-ylmethyl)-imidazo[1,2-b]pyridazin-6-yl]-piperazin-2-one] | 20 nM | 36 nM | < 3 nM
8 | C[C@@H](c1c(F)cc2ncccc2c1F)c1cnc2ccc(N3CCNC(=O)[C@H]3C)nn12 [Example 59, (R)-4-{3-[(S)-1-(5,7-Difluoro-quinolin-6-yl)-ethyl]-imidazo[1,2-b]pyridazin-6-yl}-3-methyl-piperazin-2-one] | 3 nM | 5.6 nM | 3.6 nM
9 | C[C@@H](c1c(F)cc2ncccc2c1F)c1cnc2ccc(N3CCNC(=O)[C@@H]3C)nn12 [Example 60, (S)-4-{3-[(S)-1-(5,7-Difluoro-quinolin-6-yl)-ethyl]-imidazo[1,2-b]pyridazin-6-yl}-3-methyl-piperazin-2-one] | 2.6 nM | 4.8 nM | 2.3 nM
